Test results: PMC7576493, “Novel ANO1 Inhibitor from Mallotus apelta Extract Exerts Anticancer Activity through Downregulation of ANO1” (International Journal of Molecular Sciences, 2020)

What was measured:
Anoctamin1 (ANO1) [1] = biological target: T1, Anoctamin1 (ANO1) (Homo sapiens, UniProt Q5XXA6); test: YFP (F46L/H148Q/I152L) quenching iodide influx assay in FRT cells expressing human ANO1; […] inhibition at […]; format: cell-based
T1 sequence (Q5XXA6 1-986): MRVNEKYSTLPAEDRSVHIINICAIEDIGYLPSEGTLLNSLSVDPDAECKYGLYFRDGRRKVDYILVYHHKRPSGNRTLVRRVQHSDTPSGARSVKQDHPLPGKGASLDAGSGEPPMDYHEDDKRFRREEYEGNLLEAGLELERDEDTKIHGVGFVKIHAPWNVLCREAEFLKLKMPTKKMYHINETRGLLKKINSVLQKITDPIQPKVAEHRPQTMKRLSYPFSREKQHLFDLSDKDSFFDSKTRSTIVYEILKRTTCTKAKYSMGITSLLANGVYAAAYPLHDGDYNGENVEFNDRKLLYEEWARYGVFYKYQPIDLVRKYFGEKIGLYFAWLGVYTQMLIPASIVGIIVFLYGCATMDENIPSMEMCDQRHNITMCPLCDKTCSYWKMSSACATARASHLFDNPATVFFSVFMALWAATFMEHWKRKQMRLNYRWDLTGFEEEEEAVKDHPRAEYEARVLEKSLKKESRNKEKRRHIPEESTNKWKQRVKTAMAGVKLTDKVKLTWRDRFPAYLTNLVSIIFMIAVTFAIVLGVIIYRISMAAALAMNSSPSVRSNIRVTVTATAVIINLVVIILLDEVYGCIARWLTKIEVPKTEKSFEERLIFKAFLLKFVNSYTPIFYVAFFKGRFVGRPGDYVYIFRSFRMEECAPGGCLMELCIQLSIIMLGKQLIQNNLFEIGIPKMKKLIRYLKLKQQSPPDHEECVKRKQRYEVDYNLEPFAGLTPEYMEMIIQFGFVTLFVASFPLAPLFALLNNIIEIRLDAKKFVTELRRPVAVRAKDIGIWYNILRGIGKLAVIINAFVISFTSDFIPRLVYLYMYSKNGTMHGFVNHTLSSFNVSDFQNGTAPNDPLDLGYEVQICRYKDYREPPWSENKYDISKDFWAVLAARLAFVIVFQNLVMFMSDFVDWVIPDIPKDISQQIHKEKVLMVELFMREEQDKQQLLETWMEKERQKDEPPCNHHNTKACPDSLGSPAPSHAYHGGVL

Anoctamin1 (ANO1) [2] = biological target: T1, Anoctamin1 (ANO1); test: apical membrane (short-circuit) current in FRT cells expressing human ANO1; also YFP quenching assay; format: cell-based

inhibition at 25 µM (Anoctamin1 (ANO1) [1]) [%] | IC50 (Anoctamin1 (ANO1) [2]) [nM] | SMILES
> 99 |  | COc1cc2c(c(OC)c1C(=O)/C=C/c1ccccc1)C=CC(C)(C)O2 [compound 1, Ani-D1]
 | 2640 | COc1cc2c(c(OC)c1C(=O)CC(O)c1ccccc1)C=CC(C)(C)O2 (racemic) [compound 2, Ani-D2]
